Patent US10213415B2, “Compounds as opioid receptor modulators” (JANSSEN PHARMACEUTICA NV, priority 2004, dated 2019)
Read-outs that look alike come from different tables or passages of the source.

Legend:
mu opioid receptor = biological target: T1, mu opioid receptor (Rattus norvegicus, UniProt P33535); assay: Rat Brain Mu Opioid Receptor Binding Assay (and Version 2a, [3H]DAMGO); details: rat forebrain membranes, margin of error 10-20%, read-out: r Ki μ
T1 construct: from tissue; host or cells: forebrain of male Wistar rats
In short: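 Rat forebrain membranes from male Wistar rats in 50 mM Tris-HCl pH 7.4 with 5 mM MgCl2 incubated with 0.8 nM [3H]DAMGO for 2.5 h at 25° C., then filtered and counted. Data given as % inhibition of specific binding at single concentrations or as Ki from concentration series.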

[1] = biological target: T2, mu opioid receptor (CHO-hMOR cell membranes) (Homo sapiens, UniProt P35372); assay: Mu Opioid Receptor Functional Assay: [35S]GTPγS Binding in CHO-hMOR Cell Membranes, Versions 1 and 2; assay type: biochemical; details: for MOR GTP binding assay_v2 (% I): version 2, % inhibition of agonist-stimulated GTPγS binding; for EC50: version 2, read-out: MOR GTP binding assay v2 EC50; for MOR GTP binding assay_v1 (% I): version 1, % inhibition of agonist-stimulated GTPγS binding; for MOR GTP assay_v1 % of Basal: version 1, basal binding = 100%
T2 construct: purchased Receptor Biology, Inc. (Baltimore, Md.); host or cells: CHO cells (recombinant expression)
In short: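 CHO-hMOR membranes (10 μg/ml) on WGA SPA beads, preincubated 45 min at 25 °C, then incubated with 0.5 nM [35S]GTPγS in HEPES pH 7.6, 5 mM MgCl2, 100 mM NaCl, 1 mM DTT, 1 mM EDTA. Non-specific binding with 10 μM unlabeled GTPγS; agonist EC50 from concentration-response, antagonism as inhibition of 1 μM SNC80-stimulated binding.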

delta opioid receptor = biological target: T3, delta opioid receptor (Rattus norvegicus, UniProt P33533); assay: Rat Brain Delta Opioid Receptor Binding Assay ([3H]DPDPE); details: rat forebrain membranes, margin of error 10-20%, read-out: r Ki δ
T3 construct: from tissue; host or cells: forebrain of male Wistar rats
In short: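 Rat (male Wistar) forebrain membranes in 50 mM Tris-HCl pH 7.4 with 5 mM MgCl2, incubated with ~4 nM [3H]DPDPE for 2.5 h at 25 °C. Bound ligand collected by filtration and scintillation counting. Single-concentration data given as % inhibition of specific binding; concentration series fitted to Ki.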

[2] = biological target: T4, delta opioid receptor (NG108-15 cell membranes) (Mus musculus, UniProt P32300); assay: Delta Opioid Receptor Functional Assay: [35S]GTPγS Binding in NG108-15 Cell Membranes, Version 2; assay type: biochemical; details: NG108-15 cell membranes, version 2; for EC50: [35S]GTPγS, read-out: DOR GTP-binding Assay_v2_ EC50; for DOR GTP-binding Assay v2 (% I): % inhibition of agonist-stimulated GTPγS binding
T4 construct: NG108-15 cell membranes were purchased from Applied Cell Sciences (Rockville, Md.); host or cells: NG108-15 cells (membranes purchased)
Experimental: NG108-15 cell membranes were purchased from Applied Cell Sciences (Rockville, Md.). 8 mg/ml of membrane protein suspended in 10 mM TRIS-HC pH 7.2, 2 mM EDTA, 10% sucrose.
(§1) Membranes were maintained at 4-8° C. A portion (1 ml) of membranes was added into 10 ml cold binding assay buffer. The assay buffer contained 50 mM Tris, pH 7.6, 5 mM MgCl2, 100 mM NaCl, 1 mM DTT and 1 mM EGTA. The membrane suspension was homogenized with a Polytron for 2 times and centrifuged at 3000 rpm for 10 min. The supernent was then centrifuged at 18,000 rpm for 20 min. The pellet was saved in a tube and 10 ml assay buffer was added into the tube. The pellet and buffer were mixed with a Polytron.
(§2) The pellet membranes (75 μg/ml) were preincubated with SPA (10 mg/ml) at 25° C. for 45 min in the assay buffer. The SPA (5 mg/ml) coupled with membranes (37.5 μg/ml) was then incubated with 0.1 nM [^35S] GTPγS in the same Tris buffer containing 100 μM GDP in total volume of 200 μl. Increasing concentrations of receptor agonists were used to stimulate [^35S] GTPγS binding. The basal binding was tested in the absent agonists and no specific binding was tested in the present 10 μM unlabeled GTPγS. The data were analyzed on a Top counter.
[formula] % Inhibition=(% stimulation by 1 μM SNC80−% stimulation by 1 μM SNC80 in presence of test compound)×100/(% Stimulation by 1 μM SNC80−100) % of Basal=(stimulate−non specific)*100/(basal−non specific). EC50 values were calculated using GraphPad Prism.

[3] = biological target: T5, human delta subtype 2 opioid receptor (Homo sapiens, UniProt P41143); assay: Human Delta Opioid Receptor Binding Assay (CHO membranes, 3H-Naltrindole); details: read-out: hKi δ
T5 construct: purchased Perkin Elmer RBHODM400UA; host or cells: Chinese Hamster Ovary cells (recombinant expression)
In short: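 Filtration binding on CHO-cell membranes expressing the human receptor, in 50 mM Tris pH 7.5 with 5 mM MgCl2, 30 min at room temperature; 3H-naltrindole diluted to 6 nM before mixing 1:1 with compound. Nonspecific binding defined with 1 μM unlabelled naltrindole; inhibition relative to no-inhibitor wells.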

[4] = biological target: T6, delta opioid receptor (CHO-hδ cell membranes) (Homo sapiens, UniProt P41143); assay: Delta Opioid Receptor Functional Assay: [35S]GTPγS Binding in CHO-hδ Cell Membranes, Version 1; assay type: biochemical; details: read-out: DOR GTP-binding Assay_v1 EC50
T6 construct: purchased Receptor Biology, Inc. (Baltimore, Md.); host or cells: CHO cells (recombinant expression)
Experimental: CHO-hδ cell membranes were purchased from Receptor Biology, Inc. (Baltimore, Md.). 10 mg/ml of membrane protein suspended in 10 mM TRIS-HC pH 7.2, 2 mM EDTA, 10% sucrose.
as §1, with “into 15 mL” for “into 10 ml”, “mM HEPES,” for “mM Tris,”, “mM EDTA.” for “mM EGTA.”
as §2, with “(20” for “(75”, “(10” for “(37.5”, “0.5” for “0.1”, “[^35S]GTPγS” for “[^35S] GTPγS”, “HEPES” for “Tris”, “50” for “100”
Data The % of Basal=(stimulate−non specific)*100/(basal−non specific). EC50 values were calculated using a Prism program.

human mu opioid receptor = biological target: T7, human mu opioid receptor (Homo sapiens, UniProt P35372); assay: Human Mu Opioid Receptor Binding Assay (CHO membranes, 3H-Damgo); details: read-out: hKi μ
T7 construct: purchased Perkin Elmer RBHOMM400UA; host or cells: Chinese Hamster Ovary cells (recombinant expression)
In short: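 Membranes from CHO cells expressing human mu opioid receptor, 300 μg/mL, in 50 mM Tris pH 7.5, 5 mM MgCl2. Incubated with compound and ³H-Damgo (3.6 nM before mixing) for 2 h at room temperature, filtered, counted by scintillation. Nonspecific binding with 1 μM unlabelled Damgo.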

[5] = system: novel environment-stressed mice; assay: In Vivo Assay-Stress-Induced Fecal Output (Fecal Output for 1 hr); parameters: species or system mouse; details: 1 hr; for Fecal Output (# pellets) cpd: novel environment-stressed mice; for response vs control in vivo at 10 mg/kg / response vs control in vivo at 30 mg/kg: Mus musculus, po, 1 h
In short: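 Adult male Crl:CD-1(ICR) mice (˜30-35 g; at least 10 per dose group) were split into acclimated non-stressed controls, held individually for 16-18 hr in wire-mesh-bottom cages, and non-acclimated stressed groups. Mice were dosed intragastrically with vehicle or test compound in 0.5% methylcellulose, housed individually in novel cages over absorbent cardboard, and fecal pellets per mouse were counted hourly.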

T1 sequence (P33535 whole entry): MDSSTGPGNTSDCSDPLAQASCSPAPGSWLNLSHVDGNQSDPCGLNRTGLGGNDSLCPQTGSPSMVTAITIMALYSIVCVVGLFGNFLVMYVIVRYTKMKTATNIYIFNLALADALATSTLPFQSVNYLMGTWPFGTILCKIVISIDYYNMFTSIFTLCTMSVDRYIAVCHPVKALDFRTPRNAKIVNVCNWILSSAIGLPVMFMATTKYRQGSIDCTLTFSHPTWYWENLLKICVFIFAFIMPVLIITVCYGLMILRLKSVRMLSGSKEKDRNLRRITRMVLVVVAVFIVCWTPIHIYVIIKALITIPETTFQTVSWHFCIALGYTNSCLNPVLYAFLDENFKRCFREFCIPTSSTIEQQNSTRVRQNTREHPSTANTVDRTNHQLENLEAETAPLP
T7 sequence (P35372 whole entry): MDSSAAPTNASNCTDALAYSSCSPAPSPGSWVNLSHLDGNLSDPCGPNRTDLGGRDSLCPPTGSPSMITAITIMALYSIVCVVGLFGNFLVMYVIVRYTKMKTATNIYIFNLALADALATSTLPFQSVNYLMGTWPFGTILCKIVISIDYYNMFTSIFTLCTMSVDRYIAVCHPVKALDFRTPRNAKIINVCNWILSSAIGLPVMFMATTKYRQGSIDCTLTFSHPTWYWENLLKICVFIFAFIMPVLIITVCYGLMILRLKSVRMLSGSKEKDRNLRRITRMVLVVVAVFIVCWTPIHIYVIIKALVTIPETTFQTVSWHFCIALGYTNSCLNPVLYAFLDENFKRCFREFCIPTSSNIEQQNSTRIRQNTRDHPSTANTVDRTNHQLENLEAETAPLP
T2 sequence (P35372 whole entry): as above
T3 sequence (P33533 whole entry): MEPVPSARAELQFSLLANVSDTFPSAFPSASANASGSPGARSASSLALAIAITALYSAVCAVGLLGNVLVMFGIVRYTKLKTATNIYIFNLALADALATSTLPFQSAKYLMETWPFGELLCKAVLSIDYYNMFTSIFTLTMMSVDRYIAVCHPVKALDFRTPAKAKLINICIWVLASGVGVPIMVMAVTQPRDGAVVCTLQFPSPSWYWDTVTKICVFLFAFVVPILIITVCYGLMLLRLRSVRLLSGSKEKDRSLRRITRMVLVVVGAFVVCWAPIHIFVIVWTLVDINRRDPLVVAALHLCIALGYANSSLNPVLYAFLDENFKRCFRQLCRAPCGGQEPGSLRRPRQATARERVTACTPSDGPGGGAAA
T6 sequence (P41143 whole entry): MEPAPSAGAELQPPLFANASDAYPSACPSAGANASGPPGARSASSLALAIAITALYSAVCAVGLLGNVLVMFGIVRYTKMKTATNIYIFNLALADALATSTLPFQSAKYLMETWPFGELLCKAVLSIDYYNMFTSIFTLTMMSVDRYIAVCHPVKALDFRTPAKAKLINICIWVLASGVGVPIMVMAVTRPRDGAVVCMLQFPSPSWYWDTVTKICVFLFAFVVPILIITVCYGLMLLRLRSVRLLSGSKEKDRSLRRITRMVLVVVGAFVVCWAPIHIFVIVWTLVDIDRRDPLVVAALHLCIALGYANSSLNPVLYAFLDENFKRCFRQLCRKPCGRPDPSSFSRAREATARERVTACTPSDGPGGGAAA
T5 sequence (P41143 whole entry): as above
T4 sequence (P32300 whole entry): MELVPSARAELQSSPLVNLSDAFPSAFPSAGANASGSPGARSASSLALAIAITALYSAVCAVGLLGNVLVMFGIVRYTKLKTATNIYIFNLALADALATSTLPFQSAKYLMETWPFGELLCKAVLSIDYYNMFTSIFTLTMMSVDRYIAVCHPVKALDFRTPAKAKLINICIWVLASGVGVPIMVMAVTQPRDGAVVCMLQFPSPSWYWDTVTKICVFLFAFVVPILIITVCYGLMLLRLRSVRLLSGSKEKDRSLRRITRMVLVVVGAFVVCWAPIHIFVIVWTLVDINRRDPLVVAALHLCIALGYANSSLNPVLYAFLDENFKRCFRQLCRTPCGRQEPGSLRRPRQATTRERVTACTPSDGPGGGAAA

| SMILES | Ki (mu opioid receptor) [nM] | Ki (delta opioid receptor) [nM] | EC50 [2] [nM] | DOR GTP-binding Assay v2 (% I) [2] [%] | other results |
| --- | --- | --- | --- | --- | --- |
| COc1ccc(CN(C(=O)[C@@H](N)Cc2c(C)cc(C(N)=O)cc2C)[C@@H](C)c2nc(-c3ccccc3)c[nH]2)cc1C(N)=O [Cpd 295] | 0.18 | 3.95 | 2.2 | 71.66 | MOR GTP binding assay_v2 (% I) [1]: 8.21%; EC50 [1]: 1.4 nM |
| Cc1cc(O)cc(C)c1C[C@H](N)C(=O)N(Cc1nc(-c2ccsc2)c(C)[nH]1)C(C)C [Cpd 146] | – | – | – | – | Ki [3]: 71 nM; EC50 [4]: 27 nM; MOR GTP binding assay_v1 (% I) [1]: 2.79%; MOR GTP assay_v1 % of Basal [1]: 740.77% |
| Cc1cc(O)cc(C)c1C[C@H](N)C(=O)N(Cc1nc(-c2ccccc2Cl)c(C)[nH]1)C(C)C [Cpd 155] | – | – | – | – | Ki [3]: 345 nM; EC50 [4]: 150 nM; MOR GTP binding assay_v1 (% I) [1]: 14.32%; MOR GTP assay_v1 % of Basal [1]: 655.93% |
| COc1ccc(CN(C(=O)[C@@H](N)Cc2c(C)cc(C(N)=O)cc2C)[C@@H](C)c2nc(-c3ccccc3)c[nH]2)cc1C(=O)NC1CC1 [Cpd 300] | 0.09 | 0.29 | 32 | – | MOR GTP binding assay_v2 (% I) [1]: 15.40%; EC50 [1]: 2.6 nM |
| Cc1cc(O)cc(C)c1C[C@H](N)C(=O)N(Cc1nc(-c2ccc(Cl)cc2)c(C)[nH]1)C(C)C [Cpd 147] | – | – | – | – | Ki [3]: 241 nM; EC50 [4]: 51 nM; MOR GTP binding assay_v1 (% I) [1]: 1.00%; MOR GTP assay_v1 % of Basal [1]: 779.35% |
| COC(=O)c1cccc(CN(C(=O)[C@@H](N)Cc2c(C)cc(C(N)=O)cc2C)[C@@H](C)c2nc(-c3ccccc3)c[nH]2)c1 [Cpd 9] | 0.16 | 0.11 | 3.4 | 67.13 | Ki (human mu opioid receptor): 10.9 nM |
| COc1ccc(CN(C(=O)[C@@H](N)Cc2c(C)cc(C(N)=O)cc2C)[C@@H](C)c2nc(-c3ccccc3)c[nH]2)cc1C(=O)N1CCOCC1 [Cpd 296] | 0.49 | 2.2 | 7.9 | 69.41 | MOR GTP binding assay_v2 (% I) [1]: 9.35%; EC50 [1]: 2.2 nM |
| COc1ccc(CN(C(=O)[C@@H](N)Cc2c(C)cc(C(N)=O)cc2C)[C@@H](C)c2nc(-c3ccccc3)c[nH]2)cc1C(=O)NCCO [Cpd 299] | 0.44 | 1.16 | 2.3 | – | MOR GTP binding assay_v2 (% I) [1]: 12.11%; EC50 [1]: 1 nM |
| Cc1cc(C(N)=O)cc(C)c1C[C@H](N)C(=O)N(C)[C@@H](C)c1nc(-c2ccccc2)c[nH]1 [Cpd 196] | – | – | – | – | EC50 [4]: 24 nM; Fecal Output (# pellets) cpd ([5]; 10 mg/kg oral): 9.2 pellets; Fecal Output (# pellets) cpd ([5]; 30 mg/kg oral): 4.3 pellets; response vs control in vivo at 10 mg/kg ([5]; 10 mg/kg oral, relative to acclimated control, read-out: Fecal Output cpd % control): 249%; response vs control in vivo at 10 mg/kg ([5]; 10 mg/kg oral, relative to novel environment stress (NES) vehicle group, read-out: Fecal Output cpd % NES): 65.7%; response vs control in vivo at 30 mg/kg ([5]; 30 mg/kg oral, relative to acclimated control, read-out: Fecal Output cpd % control): 391%; response vs control in vivo at 30 mg/kg ([5]; 30 mg/kg oral, relative to novel environment stress (NES) vehicle group, read-out: Fecal Output cpd % NES): 45.3%; MOR GTP binding assay_v1 (% I) [1]: 1.00%; MOR GTP assay_v1 % of Basal [1]: 620.00% |
| C[C@@H](c1nc(-c2ccccc2)c[nH]1)N(Cc1cccc(-c2nnn[nH]2)c1)C(=O)[C@@H](N)Cc1ccc(C(N)=O)cc1 [Cpd 267] | 1.53 | 0.46 | 6 | 31.76 | Ki (human mu opioid receptor): 6.88 nM |
| Cc1cc(O)cc(C)c1C[C@H](N)C(=O)N(C)[C@@H](CC(C)C)c1nc(-c2ccccc2)c[nH]1 [Cpd 174] | – | – | – | – | EC50 [4]: 20 nM; MOR GTP binding assay_v1 (% I) [1]: 42.00%; MOR GTP assay_v1 % of Basal [1]: 864.00% |
| COc1ccc(CN(C(=O)[C@@H](N)Cc2c(C)cc(C(N)=O)cc2C)[C@@H](C)c2nc(-c3ccc(Br)cc3)c[nH]2)cc1C(=O)O [Cpd 291] | 0.47 | 0.12 | > 10000 | 96.52 | – |
| COc1ccc(CN(C(=O)[C@@H](N)Cc2c(C)cc(C(N)=O)cc2C)[C@@H](C)c2nc(-c3ccccc3C(=O)O)c[nH]2)cc1OC [Cpd 29] | 25 | 28 | > 10000 | 79.05 | Ki (human mu opioid receptor): 38 nM |
| CCOc1cccc(CN(C(=O)[C@@H](N)Cc2c(C)cc(O)cc2C)[C@@H](C)c2nc(-c3ccccc3)c[nH]2)c1 [Cpd 251] | 0.08 | 0.26 | 18 | 53.94 | – |
| COC(=O)c1ccc(CN(C(=O)[C@@H](N)Cc2c(C)cc(O)cc2C)[C@@H](C)c2nc(-c3ccccc3)c[nH]2)o1 [Cpd 286] | 0.05 | 0.11 | 2.6 | 34.65 | – |
| Cc1cc(C(N)=O)cc(C)c1C[C@H](N)C(=O)N(Cc1ccccc1C(N)=O)[C@@H](C)c1nc(-c2ccccc2)c[nH]1 [Cpd 1] | 1.1 | 13.2 | 88 | 22.10 | Ki (human mu opioid receptor): 3.6 nM |
| Cc1cc(O)cc(C)c1C[C@H](N)C(=O)N(Cc1ccc(C(F)(F)F)cc1)[C@@H](C)c1nc(-c2ccccc2)c[nH]1 [Cpd 249] | 0.12 | 0.18 | 8 | 20.14 | – |
